Laboratory results published in patent US20080287467A1, “Therapeutic Agent for Respiratory Diseases” (priority 2004, published 2008).
Like-named read-outs stand apart in the source and are kept apart here.

System: swine bronchial smooth muscle cells
Test: Patch cramp (whole-cell) measurement of membrane current and membrane potential, ATP-induced inward current
Format: cell-based
Text: In the present specification, the patch cramp method is a method including allowing a glass micropipette (patch electrode) to attach tightly to cell membrane at a high resistance in giga-ohms (GΩ) or more and then measuring ion currents in conditions that a very small membrane region (patch membrane) on the top opening of the electrode is electrically isolated from other regions. In particular, the inventors measured and analyzed electric currents by the whole-cell mode including opening a hole by breaking the patch membrane to record ion current flowing through the whole cell membrane except the broken patch membrane.
Swine bronchial smooth muscle tissue was finely chopped and incubated at 37° C. for 40 minutes, using collagenase and papain, to isolate the cells.

## Nc1ncnc2c1ncn2[C@@H]1O[C@H](COP(=O)(O)OP(=O)(O)OP(=O)(O)O)[C@@H](O)[C@H]1O [ATP, adenosine-5′-triphosphate]
Electric current fixed, depolarized from −40 mV
  cellular membrane potential after depolarization due to ATP: −20 mV
Membrane potential maintained at −40 mV
  membrane current on ATP administration: inward current passed

## Cc1nc(N=Nc2ccc(S(=O)(=O)O)cc2S(=O)(=O)O)c(COP(=O)(O)O)c(C=O)c1O [PPADS, pyridoxal phosphate-6-azophenyl-2′,4′-disulfonic acid]
Concentration not given
  suppression of the ATP-induced inward current: No suppression

## COc1ccc(CCCOC(Cn2ccnc2)c2ccc(OC)cc2)cc1 (stereo not shown) [SKF 96365]
  suppression of the ATP-induced inward current: about 50%

## COc1ccc2c(c1)CC[C@@H]1[C@@H]2CC[C@]2(C)[C@@H](NCCCCCCN3C(=O)C=CC3=O)CC[C@@H]12 [U-73122]
Treatment with 100 μM, subsequent ATP dosing
  suppression of the ATP-induced inward current: no suppression

## Cc1ccc(C(=O)Nc2ccc(S(=O)(=O)O)c3cc(S(=O)(=O)O)cc(S(=O)(=O)O)c23)cc1NC(=O)c1cccc(NC(=O)Nc2cccc(C(=O)Nc3cc(C(=O)Nc4ccc(S(=O)(=O)O)c5cc(S(=O)(=O)O)cc(S(=O)(=O)O)c45)ccc3C)c2)c1 [suramin]
Concentration not given
  suppression of the ATP-induced inward current: No suppression

## ivermectin
FIG. 2
  enhancement of the ATP-induced inward current: 3.5 fold
